The source of these data is patent US20080262228A1, “Metabolites of 5-fluoro-8- quinoline and methods of preparation and uses thereof” (Wyeth, priority 2006, published 2008).

Counter-ions that a name gives are not always drawn. Like-named read-outs stand apart in the source and are kept apart here.

A short description of data set [1]: In vivo metabolism of [14C]COMPOUND I in Sprague-Dawley rats, single oral 5 mg/kg dose. Also on record: species or system rat. The note with it: for Chromatographic Distribution of Radioactivity in Pooled Plasma Samples: 5 mg/kg oral [14C]COMPOUND I; for percent of total radioactivity in the fecal extract: pooled 0-24 hr feces; for Source: P, plasma, F, feces, B, brain.

The nature of data set [2]: Metabolite characterization in cryopreserved hepatocytes. The note with it: hepatocyte incubations, 20 μM; R, rat; D, dog; H, human; Media = decomposition product observed in media control.
Method: Pooled male rat, dog, and mixed male and female human cryopreserved hepatocytes were used in this study. The cryopreserved hepatocytes (two vials from each species; three to five million viable cells per vial) were thawed in a 37° C. water bath with gentle shaking until the ice was almost melted. The suspensions from the two individual vials of the same species were immediately transferred to a 50 mL centrifuge tube containing pre-warmed thawing media at 37° C. with gentle handshaking to prevent the cells from settling. The cell suspension was centrifuged at 50 g for 5 min at 4° C. Supernatants were discarded and the pellets were resuspended in pre-warmed incubation media (8 mL) at 37° C. […] [^14C]COMPOUND I (20 μM) was incubated in a 12-well plate containing hepatocyte suspensions at 1.0 mL per well in duplicate (≧1 million viable cells/well) at 37° C. for 1 or 4 hr in the presence of 5% CO2:95% O2. Control incubations without hepatocytes were also run under the same conditions. Positive controls containing [^14C]7-ethoxycoumarin (100 μM) were also incubated under the same conditions, but only for 1 hr. At the end of the incubations, reactions were stopped by adding acetonitrile with 2% acetic acid (1 mL), mixed for 10 min, followed by centrifugation at 4000 rpm for 10 min at 4° C. Aliquots (50 μL) of supernatants were analyzed by HPLC with UV and radioactivity flow detection for metabolite profiling, and by LC/MS for metabolite identification as described in below. To determine extraction recovery, aliquots (20 μL) of supernatants were analyzed for radioactivity content utilizing a Packard Tri-Carb Model 3100 TR liquid scintillation counter and 5 mL of Ultima Gold.
The HPLC system used for mass spectrometric analysis was a Waters Alliance model 2695 HPLC system (Waters Corp). It was equipped with a built-in autosampler and a model 996 diode array UV detector. The UV detector was set to monitor 210-400 nm. The HPLC conditions were the same as those described hereinabove with the following exceptions. […]
[3] abbreviates: female, Sprague-Dawley, rat, brain and plasma, po, 5 mg/kg, read-out: Brain/Plasma COMPOUND I Ratio.
Setting [4] is: male, Sprague-Dawley, rat, brain and plasma, po, 5 mg/kg, read-out: Brain/Plasma COMPOUND I Ratio.

Turning to `COc1cc(N2CCN(C3CCN(c4ccc(F)c5cccnc45)CC3)CC2)c2ncccc2c1` [COMPOUND I, 5-Fluoro-8-{4-[4-(6-methoxyquinolin-8-yl)piperazin-1-yl]piperidin-1-yl}quinoline], the Kp in data set [1] (Sprague-Dawley, rat, brain and plasma, rats, 5 mg/kg oral, read-out: brain-to-plasma ratios of COMPOUND I concentrations) lay within 0.47 to 0.85. Moreover, the concentration at 1 hr in data set [1] (Sprague-Dawley, rat, female rats, 1 hr, 5 mg/kg oral, mean brain radioactivity x percentage of COMPOUND I in pooled sample, read-out: Brain COMPOUND I Concentrations) is 106 ng/g; in data set [1] (Sprague-Dawley, rat, male rats, 1 hr, 5 mg/kg oral, mean brain radioactivity x percentage of COMPOUND I in pooled sample, read-out: Brain COMPOUND I Concentrations), 40.9 ng/g. In addition, the concentration at 3 hr came out at 34.7 ng/g in data set [1] (Sprague-Dawley, rat, female rats, 3 hr, 5 mg/kg oral, mean brain radioactivity x percentage of COMPOUND I in pooled sample, read-out: Brain COMPOUND I Concentrations) and 15.9 ng/g in data set [1] (Sprague-Dawley, rat, male rats, 3 hr, 5 mg/kg oral, mean brain radioactivity x percentage of COMPOUND I in pooled sample, read-out: Brain COMPOUND I Concentrations). The concentration at 6 hr in data set [1] (Sprague-Dawley, rat, male rats, 6 hr, 5 mg/kg oral, mean brain radioactivity x percentage of COMPOUND I in pooled sample, read-out: Brain COMPOUND I Concentrations) turned out to be 10 ng/g. Also, the “Chromatographic Distribution of Radioactivity in Pooled Plasma Samples” value in data set [1] (female rats, 1 hr) is recorded as 16.4%; in data set [1] (female rats, 3 hr), 14.6%; in data set [1] (male rats, 1 hr), 16.9%; in data set [1] (male rats, 3 hr), 15.5%; in data set [1] (male rats, 6 hr), 8.7%. In addition, the “percent of total brain radioactivity” value came to 79.5% in data set [1] (female rats, 1 hr, pooled brain, 5 mg/kg oral); 70.7% in data set [1] (female rats, 3 hr, pooled brain, 5 mg/kg oral); 80.3% in data set [1] (male rats, 1 hr, pooled brain, 5 mg/kg oral); 63.8% in data set [1] (male rats, 3 hr, pooled brain, 5 mg/kg oral); 60.5% in data set [1] (male rats, 6 hr, pooled brain, 5 mg/kg oral). Also, the Kp at 1 h in data set [1] (setting [3]) was found to be 0.77; in data set [1] (setting [4]), 0.47. Besides, the figures for the Kp at 3 h in data set [1] (setting [3]) and in data set [1] (setting [4]) were 0.58 and 0.54, respectively. In data set [1] (male rats, from 1 to 6 hr post-dose, 5 mg/kg oral), the “percent of total plasma radioactivity” value is on record as 8.7-16.9%. Besides, the “percent of total radioactivity in the fecal extract” value in data set [1] (male rats, 5 mg/kg oral) is given as 8.1%. In addition, in data set [1] (setting [4]), the Kp at 6 h amounted to 0.85. The Source entry was “P, B, F” in data set [1] (rats, 5 mg/kg oral) and “All” in data set [2].
In the case of `Oc1cc(N2CCN(C3CCN(c4ccc(F)c5cccnc45)CC3)CC2)c2ncccc2c1` [Metabolite M21, 8-{4-[1-(5-fluoroquinolin-8-yl)piperidin-4-yl]piperazin-1-yl}quinolin-6-ol trihydrochloride], the “percent of total brain radioactivity” value in data set [1] (female rats, between 1 and 3 hr post-dose, 5 mg/kg oral) is 11.3-13.6%; in data set [1] (male rats, between 1 and 6 hr post-dose, 5 mg/kg oral), 9.0-9.4%. The “percent of total radioactivity in the fecal extract” value in data set [1] (male rats, 5 mg/kg oral) is recorded as 15.1%. In addition, the Source entry is given as “B, F” in data set [1] (rats, 5 mg/kg oral) and “R (trace), D, H” in data set [2].
